Where two headings read alike, the source gives them in different places.

In one experiment the test system is AR in PC-3 cells. Briefly: Chloramphenicol acetyltransferase assay (pMSG-CAT reporter). In kind it is cell-based, human. Conditions: 10 nM R1881, 24 h, PC-3 cell lysate proteins (FIG. 6A). The text has this:
(§1) Chloramphenicol Acetyltransferase Assay.

Another experiment concerns DU 145 cells. Described as above. The format is cell-based, human. Conditions: 10 nM R1881, DU 145 cells.
Text: as §1

The test system of experiment [1] is human AR cDNA-transfected PC-3 cells. Conditions: 10 nM R1881, 24 h, human AR cDNA-transfected PC-3 cells (FIG. 6A).
Procedure: Chloramphenicol Acetyltransferase Assay. Cells that had been grown in medium containing 5% charcoal-stripped FBS were transfected with the pMSG-CAT reporter plasmid, pSG5 vector DNA, or pSG5-AR plasmid by the liposome-mediated transfection method (Lin et al., 1992, Cancer Res. 52, 4600–4607; Felgner et al., 1987, Proc. Natl. Acad. Sci. U.S.A. 84:7413–7417). After a 24-h incubation period, cells were maintained in medium supplemented with 5% steroid-reduced FBS in the presence or absence of 10 nM R1881, a synthetic androgen, in ethanol (0.01%, v/v). After an additional 24-h incubation, CAT assays were performed as described (Felgner et al., 1987, Proc. Natl. Acad. Sci. U.S.A. 84:7413–7417; Moszowicz et al., 1993, Mol. Endocrinol. 7:1861–869).
In experiment [2] the test system is LNCaP-23 and LNCaP-34 cells. Conditions: LNCaP-23 and LNCaP-34 versus clone 81 parent and LNCaP-CMV cells, different concentrations of DHT (FIG. 5D). The procedure:
(§2) Androgen Effect on Cell Growth, Protein Tyrosine Phosphorylation, PSA, and PAcP Expression. Cells were plated at a density of approximately 1×10^4 cells/cm^2 in RPMI 1640 medium containing 7% FBS and maintained in a 37° C. incubator (5% CO^2) for 3 days (Lin et al., 1992, Cancer Res. 52, 4600–4607; Lin et al., 1993, Arch. Biochem. Biophys. 300:384–390; both are incorporated by reference herein). To investigate androgen effect on cell growth and protein tyrosine phosphorylation, cells that had been maintained in the steroid-reduced medium containing 5% heat-inactivated dialyzed FBS for an additional 48 h were grown in fresh steroid-reduced medium in the presence or absence of different concentrations of DHT. After a time period specified in each set of experiments, cells were harvested and then counted using a hemocytometer or Coulter Counter (Lin et al., 1992, Cancer Res. 52, 4600–4607; Lin et al., 1994, Differentiation 57:143–149; incorporated by reference herein). The cell number in the control well was defined as ratio 1.0.

A further experiment deals with PC-411 and PC-416 cells. Conditions: p<0.05 (FIG. 6D). The procedure:
as §2

The subject of a further experiment is cellular PAcP. Conditions: clone 33 LNCaP cells exposed to DHT (FIG. 3B). From the text: (§3) Cells were harvested for preparation of total RNA and total cell lysate proteins as described below.
Western Blot Analysis. Subconfluent cells were trypsinized, pelleted, and rinsed with Hepes-buffered saline, pH 7.0, and then lysed in a hypotonic cell lysis buffer containing various protease inhibitors as described above. […] The relative levels of AR and PAcP protein were semiquantified by densitometric analyses of autoradiograms with different exposure time periods utilizing Molecular Dynamics equipment and software program.

For a further experiment, the system named is clone 81 LNCaP cells. Conditions: 10 nM DHT, 7-day treatment, clone 81 LNCaP (FIG. 2A).
Text: (§4) Cell Cultures. Human prostate carcinoma cell lines, LNCaP-FGC (LNCaP) (Horoszewicz et al., 1983, Cancer Res. 43:1809–1818), DU145 (Stone et al., 1978, Int. J. Cancer 21:274–281), and PC-3 (Kaighn et al., 1979, Invest. Urol. 17:16–23), were originally obtained from the American Type Culture Collection (Rockville, Md.) and routinely maintained in RPMI 1640 medium supplemented with 7% FBS, 1% glutamine, and 0.5% gentamicin, as described previously (Lin et al., 1992, Cancer Res. 52, 4600–4607; Lin et al., 1986, Mol. Cell. Biol. 6:4753–4757). Cultured cells were fed twice per week and trypsinized once per week; one passage equals one trypsinization. […] For experiments, LNCaP cells that had passage numbers less than 33 were designated as clone 33, passage numbers over 80 as clone 81, and passage numbers between 34 and 80 as clone 51. To investigate basal growth rates of different subcloned cells, cells were seeded and maintained in steroid-reduced medium containing 5% heat-inactivated dialyzed FBS. To quantify cell growth, attached cells were trypsinized and neutralized with medium-FBS. The total cell number including the suspended and attached cells were counted using a hemocytometer via trypan blue exclusion or a Coulter Counter Z1 model (Lin et al., 1992, Cancer Res. 52, 4600–4607; Lin et al., 1994, Differentiation 57:143–149).
as §2
(§5) In FIG. 1A, the total cell number was counted at day 3 for PC-3 and DU145 cells and at day 4 fro LNCaP cells.

The subject of another experiment is PC-3 cells. Conditions: counted at day 3 (FIG. 1A).
Text: as §4, §2, §5

The next experiment concerns DU145 cells. Conditions: counted at day 3 (FIG. 1A).
Text: as §4, §2, §5

For another experiment, the system named is clone 33 LNCaP cells. Conditions: 10 nM DHT.
Text: as §4, §2, §5

The next experiment concerns PSA mRNA. Conditions: each clone of LNCaP cells (33, 51, 81), 10 nM DHT, 3 days.
Text: as §3

For a further experiment, the system named is PAcP mRNA in LNCaP cells. From the text:
Nuclear run-on experiment. […] Transcription was continued in the presence of “P-labeled UTP (Amersham. Life Science Inc.). The radioactive RNA was hybridized with a slot blot membrane containing the full length of PAcP cDNA.

A further experiment deals with T1, PAcP (Homo sapiens, UniProt P15309).
T1 sequence (P15309 33-386): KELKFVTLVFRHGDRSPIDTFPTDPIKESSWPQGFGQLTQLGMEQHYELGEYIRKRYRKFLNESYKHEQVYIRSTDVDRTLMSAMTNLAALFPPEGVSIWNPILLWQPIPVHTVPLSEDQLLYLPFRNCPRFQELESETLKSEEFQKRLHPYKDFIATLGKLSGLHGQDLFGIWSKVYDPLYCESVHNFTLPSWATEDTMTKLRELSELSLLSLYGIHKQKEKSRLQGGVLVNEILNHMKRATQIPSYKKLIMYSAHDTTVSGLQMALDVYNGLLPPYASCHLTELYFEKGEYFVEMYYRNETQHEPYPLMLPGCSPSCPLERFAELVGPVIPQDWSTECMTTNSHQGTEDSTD
Conditions: 20 nM okadaic acid; cited from earlier work.

Experiment [3] has as its system LNCaP xenograft tumors. The experiment in a line: Subcutaneous xenograft tumors in female athymic mice, LNCaP cells. In kind it is in vivo. Conditions: for mice that did not develop any tumor: female, after 100 days of inoculation; for averaged tumor size: 70 days. The procedure:
(§6) Xenograft animal experiments. The protocol for the subcutaneous xenograft animal model in athymic mice was essentially as that described in Lin et al., 1995 (The Prostate 26:194–204). For comparing the tumorigenicity of different LNCaP cells, 1×10^6 cells were suspended in 0.1 ml medium, mixed with 0.1 ml matrigel (Collaborative Biomedical, MA), and injected subcutaneously in the hind flank of male mice. For examining the hormone effect on tumor development, 5×10^5 cells in matrigel were injected into female mice. For the PC-3 cell system, 1×10^6 cells in 0.2 ml medium suspension without matrigel were injected into male mice. The animal maintenance and the tumor measurement were followed the NIH guidelines and the specific guideline by the University of Nebraska Medical Center as previously described (Lin et al., 1995, The Prostate 26:194–204).

Another experiment concerns PC-416 cells. The experiment in a line: Anchorage-independent growth, soft agar analysis. In kind it is cell-based, human. Conditions: PC-416 cells (FIG. 9C). The procedure: (§7) Anchorage-independent growth. Anchorage-independent growth of prostate cancer cells was performed by soft agar analysis (Weiner et al., 1989, Oncogene 4:1175–1183; Horoszewicz et al., 1983, Cancer Res. 43:1809–1818). Briefly, cells were seeded in 0.25% agarose on the top of a base layer containing 0.6% agarose. One day after seeding, cell clumps containing more than one cell were excluded and the colony number was counted after 3 weeks of incubation.

The subject of experiment [4] is PAcP cDNA transfected C-81 LNCaP cells. The experiment in a line: Anchorage-independent growth, soft agar analysis. In kind it is cell-based, human. Conditions: LNCaP-23, -28, -40 cells, colonies after 3 weeks (FIG. 9B). The procedure:
as §7

In another experiment the test system is PC-3 xenograft tumors. The experiment in a line: Subcutaneous xenograft tumors in male athymic mice, PC-3 cells. In kind it is in vivo. Conditions: for xenograft tumor size as % of PC-3 xenograft tumors: 42 days; for xenograft tumor size: 42 days after cell injection (PC-3 612 mm^3). The procedure: as §6
Experiment [5] concerns LNCaP xenograft tumors. The experiment in a line: Subcutaneous xenograft tumors in male athymic mice, LNCaP cells. Conditions: 28 days after inoculation (C-81 LNCaP 241). In kind it is in vivo. The procedure:
as §6

With `C[C@]1(O)CC[C@H]2[C@@H]3CCC4=CC(=O)CCC4=C3C=C[C@@]21C` [R1881], the “stimulation of the CAT activity” value in the experiment with AR in PC-3 cells was about 2 fold; in [1], about 9 fold. Besides, the “effect on the CAT activity” value in the experiment on DU 145 cells is “did not have an effect”.

In the case of `C[C@]12CCC(=O)C[C@@H]1CC[C@@H]1[C@@H]2CC[C@]2(C)[C@@H](O)CC[C@@H]12` [DHT, 5α-dihydrotestosterone], the “degree of androgen stimulation of cell growth” value in [2] is listed as “enhanced”. In addition, the “effect on cell growth” value in the experiment with PC-411 and PC-416 cells is “stimulated significantly”; in the experiment with PC-3 cells it was “did not have a significant effect”; in the experiment on DU145 cells, “did not have a significant effect”. Further, the “cellular PAcP level” value with cellular PAcP is listed as “diminished level”. Besides, the “stimulation of cell growth” value with clone 81 LNCaP cells is recorded as about 20%; with clone 33 LNCaP cells (clone 33 LNCaP, steroid-reduced medium, counted at day 4 (FIG. 1A)), 1.5–2 fold. For the same molecule, the “stimulatory effect on cell growth” value in the experiment on clone 33 LNCaP cells (7-day treatment, clone 33 LNCaP (FIG. 2A)) is listed as at most 2.5 fold. Moreover, in the experiment with PSA mRNA, the “induction of PSA mRNA, normalized to GAPDH” value is recorded as 2–3 fold. The results for the “transcription of PAcP mRNA” value in the experiment with PAcP mRNA in LNCaP cells (high density LNCaP cells (FIG. 11B)) and in the experiment on PAcP mRNA in LNCaP cells (low density LNCaP cells (FIG. 11B)) were “suppressed” and “stimulated”, respectively.

For the molecule `C=C1[C@@H](O)[C@@H]2O[C@]3(CC[C@H](/C=C/[C@@H](C)[C@@H]4CC(C)=C[C@@]5(O[C@H](C[C@@](C)(O)C(=O)O)CC[C@H]5O)O4)O3)CC[C@H]2O[C@@H]1[C@@H](O)C[C@H](C)[C@H]1O[C@@]2(CCCCO2)CC[C@H]1C` [okadaic acid], the “effect on PAcP activity” value on PAcP is “not affected”.

B1: cellular PAcP: cellular form of human prostatic acid phosphatase, expressed from full-length human PAcP cDNA driven by a pCMV-neo expression vector (protein)
chain: KELKFVTLVFRHGDRSPIDTFPTDPIKESSWPQGFGQLTQLGMEQHYELGEYIRKRYRKFLNESYKHEQVYIRSTDVDRTLMSAMTNLAALFPPEGVSIWNPILLWQPIPVHTVPLSEDQLLYLPFRNCPRFQELESETLKSEEFQKRLHPYKDFIATLGKLSGLHGQDLFGIWSKVYDPLYCESVHNFTLPSWATEDTMTKLRELSELSLLSLYGIHKQKEKSRLQGGVLVNEILNHMKRATQIPSYKKLIMYSAHDTTVSGLQMALDVYNGLLPPYASCHLTELYFEKGEYFVEMYYRNETQHEPYPLMLPGCSPSCPLERFAELVGPVIPQDWSTECMTTNSHQGTEDSTD
Take B1: the tumor induction result in the experiment with LNCaP xenograft tumors [3] (LN-23 and LN-40 cells, female mice, 35 days after inoculation (clone-81 782 mm^3)) is “no detectable tumor”. In addition, the figures for the “mice that did not develop any tumor” value in the experiment on LNCaP xenograft tumors [3] (LN-23 mice) and with LNCaP xenograft tumors [3] (LN-40 mice) were 20% and 50%, respectively. Besides, the averaged tumor size stood at 347 mm^3 in the experiment with LNCaP xenograft tumors [3] (LN-23 tumors, female mice); 214 mm^3 in the experiment on LNCaP xenograft tumors [3] (LN-40 tumors, female mice); 143 mm^3 in the experiment on LNCaP xenograft tumors [5] (LN-23 cells); 115 mm^3 in the experiment with LNCaP xenograft tumors [5] (LN-34 cells). For the same molecule, the anchorage-independent growth entry with PC-416 cells is “diminished”. Besides, the “decrease of anchorage-independent growth” value in experiment [4] is reported as “more than 100 folds”. The “xenograft tumor size as % of PC-3 xenograft tumors” value is “about 38%” in the experiment on PC-3 xenograft tumors (PC-412, male mice) and about 23% with PC-3 xenograft tumors (PC-416, male mice). For the same molecule, the xenograft tumor size with PC-3 xenograft tumors (PC-412, male mice) was 233 mm^3; in the experiment with PC-3 xenograft tumors (PC-416, male mice) it was 138 mm^3.

The record behind these values is US7094533B1, “Therapeutic and diagnostic applications of prostatic acid phosphatase in prostate cancer” (Board of Regents of the University of Nebraska, priority 1999, dated 2006).
